Assay results reported in US5936082A, “Metallocorrinoids as biologically compatible carriers of pharmacological agents” (The University of Akron, priority 1997, dated 1999).

Test: In vitro nitric oxide release and content by nitrogen oxides analyzer (Monitor Labs Model 8440)
Assay type: physicochemical
Experimental: The nitric oxide content and kinetic release profile, shown in FIG. 2, of nitrosylcobalamin was determined in vitro using a nitrogen oxides analyzer (Monitor Labs Model 8440). The amount of NO-"loading" was determined by examining the cumulative NO release, characterized at pH 4.9, 32° C., during a time span of 675.5 hours. The total NO released was 4,610 nmol NO, 38% loading based on the theoretical maximum of 11,890 nmol. The first twenty hours of NO release was characterized in great detail, with data readings taken every 15 minutes for the first eight hours and every half hour thereafter, resulting in the production of 260 nmol NO. […] At pH 10.0, NO release was undetected even though the sample size was increased to 20.6 mg.

nitrosylcobalamin
NO produced at pH 5.0 (5 mg sample, pH 5.0, 37° C., 86 hour time span): 95.0 nmol | NO produced at pH 6.0 (5 mg sample, pH 6.0, 37° C., 86 hour time span): 2.4 nmol | NO produced at pH 7.4 (5 mg sample, pH 7.4, 37° C., 86 hour time span): 1.05 nmol | kinetic order of the cumulative NO release profile (cumulative NO release, pH 4.9, 32° C., R^2 =0.9984): first order kinetics | calculated half life of NO release (first order fit of cumulative NO release, pH 4.9, 32° C.): 210 h | NO release in the first twenty hours (first twenty hours, pH 4.9, 32° C.): 260 nmol | NO loading, based on the theoretical maximum of 11,890 nmol (from cumulative NO release at pH 4.9, 32° C., 675.5 hours): 38% | total NO released (cumulative NO release) (pH 4.9, 32° C., time span of 675.5 hours): 4,610 nmol | NO release at pH 10.0 (pH 10.0, sample size 20.6 mg): undetected
